Assay results: the supplement of paper PMC10307832

What was measured:
Assay in all cases: relative viability (nuclei count vs DMSO), 5 days (fraction); higher = more cells survive
[1] = compound: COC1=CC=C(C=C1)COC2=C(C=C(C=C2)CC3=CN=C(N=C3N)N)OC [GW-2580] + C[C@]1(O)C[C@@H](c2nc(-c3ccc4ccc(-c5ccccc5)nc4c3)c3c(N)nccn32)C1 [Linsitinib] (partner 1 µM)
Summary of the method: (§1)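 The day after seeding in 1536-well plates, lung cancer cell lines were treated by pin tool with a single drug, or with a fixed anchor-drug dose together with five library-drug doses (not always all listed) in √10 steps. After 5 days, a combined fix-and-stain solution (final 0.05% Triton X-100, 1% formaldehyde, 1 ug/ml Hoechst) was added. Nuclei counted on 4× images gave relative viability as treated counts over vehicle counts, reported as the median of duplicate plates.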

[2] = compound: COC1=CC=C(C=C1)COC2=C(C=C(C=C2)CC3=CN=C(N=C3N)N)OC [GW-2580] + COc1cccc2cc(-c3nc([C@H]4CC[C@H](C(=O)O)CC4)n4ncnc(N)c34)[nH]c12 [OSI-027] (partner 0.5 µM)
Summary of the method: as §1

[3] = compound: COC1=CC=C(C=C1)COC2=C(C=C(C=C2)CC3=CN=C(N=C3N)N)OC [GW-2580] + CS(=O)(=O)N1CCN(Cc2cc3nc(-c4cccc5[nH]ncc45)nc(N4CCOCC4)c3s2)CC1 [Pictilisib] (partner 1 µM)
Summary of the method: as §1

[4] = compound: COC1=CC=C(C=C1)COC2=C(C=C(C=C2)CC3=CN=C(N=C3N)N)OC [GW-2580] + C[C@@H](Oc1cc(-c2cnn(C3CCNCC3)c2)cnc1N)c1c(Cl)ccc(F)c1Cl [Crizotinib] (partner 1 µM)
Summary of the method: as §1

[5] = compound: COC1=CC=C(C=C1)COC2=C(C=C(C=C2)CC3=CN=C(N=C3N)N)OC [GW-2580] + Cc1cc(Nc2cc(N3CCN(C)CC3)nc(Sc3ccc(NC(=O)C4CC4)cc3)n2)n[nH]1 [Tozasertib] (partner 0.1 µM)
Summary of the method: as §1

| Cell Line | relative viability ([1]; first compound 0.08 µM) | relative viability ([1]; first compound 0.8 µM) | relative viability ([1]; first compound 2.53 µM) | relative viability ([1]; first compound 8 µM) | relative viability ([2]; first compound 0.08 µM) | relative viability ([2]; first compound 0.8 µM) | relative viability ([2]; first compound 2.53 µM) | relative viability ([2]; first compound 8 µM) | relative viability ([3]; first compound 0.08 µM) | relative viability ([3]; first compound 0.8 µM) | relative viability ([3]; first compound 2.53 µM) | relative viability ([3]; first compound 8 µM) | relative viability ([4]; first compound 0.08 µM) | relative viability ([4]; first compound 0.8 µM) | relative viability ([4]; first compound 2.53 µM) | relative viability ([4]; first compound 8 µM) | relative viability ([5]; first compound 0.08 µM) | relative viability ([5]; first compound 0.8 µM) | relative viability ([5]; first compound 2.53 µM) | relative viability ([5]; first compound 8 µM) |
| --- | --- | --- | --- | --- | --- | --- | --- | --- | --- | --- | --- | --- | --- | --- | --- | --- | --- | --- | --- | --- |
| NCI-H2126 | 0.739 | 0.731 | 0.653 | 0.743 | 0.697 | 0.793 | 0.706 | 0.716 | 0.483 | 0.497 | 0.448 | 0.452 | 1.06 | 1.06 | 1.01 | 1.04 | 0.889 | 0.933 | 0.822 | 0.794 |
| NCI-H2228 | 0.88 | 0.664 | 0.79 | 0.633 | 0.569 | 0.6 | 0.639 | 0.545 | 0.425 | 0.285 | 0.327 | 0.417 | 0.404 | 0.528 | 0.408 | 0.5 | 0.28 | 0.351 | 0.226 | 0.235 |
| NCI-H2347 | 0.996 | 0.864 | 0.954 | 0.884 | 0.341 | 0.364 | 0.371 | 0.433 | 0.662 | 0.992 | 0.592 | 0.717 | 0.733 | 0.702 | 0.603 | 0.736 | 0.538 | 0.745 | 0.508 | 0.401 |
| NCI-H2405 | 0.979 | 0.85 | 0.886 | 0.861 | 0.643 | 0.668 | 0.609 | 0.618 | 0.432 | 0.505 | 0.319 | 0.529 | 0.827 | 0.885 | 0.753 | 0.78 | 0.8 | 0.726 | 0.656 | 0.524 |
| NCI-H3122 | 0.993 | 1.13 | 1.16 | 1.05 | 1.28 | 1.24 | 1.19 | 0.895 | 0.586 | 0.611 | 0.584 | 0.576 | 0.286 | 0.309 | 0.247 | 0.238 | 0.549 | 0.421 | 0.468 | 0.362 |
| PC-3 [JPC-3] | 0.96 | 0.995 | 0.966 | 0.967 | 0.75 | 0.985 | 0.721 | 0.724 | 0.857 | 0.798 | 0.716 | 0.68 | 0.985 | 1.08 | 0.98 | 0.945 | 0.89 | 0.916 | 0.891 | 0.854 |
| PC-14 | 1.12 | 0.987 | 0.934 | 1.03 | 1 | 1.08 | 0.671 | 0.817 | 0.909 | 1.03 | 0.781 | 0.725 | 0.949 | 1.04 | 0.907 | 0.899 | 0.665 | 0.68 | 0.514 | 0.468 |
| RERF-LC-KJ | 0.946 | 0.939 | 0.816 | 0.815 | 0.584 | 0.606 | 0.501 | 0.484 | 0.553 | 0.404 | 0.478 | 0.515 | 0.818 | 0.915 | 0.778 | 0.76 | 0.474 | 0.593 | 0.508 | 0.367 |
| SK-LU-1 | 1.39 | 1.23 | 1.04 | 1.16 | 0.366 | 0.347 | 0.321 | 0.348 | 0.621 | 0.63 | 0.461 | 0.557 | 1 | 1.08 | 0.798 | 1.06 | 0.362 | 0.338 | 0.272 | 0.292 |
| SK-MES-1 | 1.12 | 1.14 | 1.01 | 1.09 | 0.625 | 0.723 | 0.592 | 0.379 | 0.34 | 0.381 | 0.355 | 0.324 | 1.01 | 1.04 | 0.871 | 1 | 1.06 | 1.06 | 0.88 | 0.816 |
| SW 1573 | 0.744 | 0.806 | 0.713 | 0.66 | 0.809 | 0.626 | 0.666 | 0.577 | 0.442 | 0.613 | 0.542 | 0.536 | 0.73 | 0.764 | 0.803 | 0.643 | 0.183 | 0.2 | 0.219 | 0.24 |
